Experimental data: patent publication US8481005B2, “Methods to prevent cytotoxicity using N-acetyl-cysteine” (priority 2006, dated 2013)

Legend:
[1] = test system: human smooth muscle cells; assay: VEGF secretion of human smooth muscle cells (ELISA); assay type: cell-based; details: HEMA (0.082M) alone or with NAC 20 mM, 4 hours, then overnight
[2] = test system: HEp2 cells co-cultured with PBMCs; assay: IL-6 in co-cultures of HEMA/NAC treated HEp2 cells with healthy donor PBMCs; assay type: cell-based, human
Protocol: HEp-2 cells obtained from ATCC were cultured in DMEM supplemented with 10% FBS, 1% sodium pyruvate, 1% non essential amino acids and 1% antibiotic-antimycotic solution. […] The cells were trypsinized and washed 4 times with 1×PBS before they were co-cultured with PBMCs obtained from a healthy individual. A 4:1 ratio of effector to target cells (PBMC:HEp2) were used in these cultures. PBMCs were treated with and without IL-2 before they were co-cultured with HEp-2 cells. The supernatants were then removed from the co-cultures after an overnight incubation and analyzed using the FAST QUANT multiplex cytokine array kit to determine the levels of secreted cytokines.

[3] = test system: human dental pulp stromal cells; assay: Human dental pulp stromal cells, 4 hour treatment: VEGF ELISA and apoptosis; assay type: cell-based; details: HEMA alone or with NAC 20 mM, then overnight
Protocol: After this treatment cells were washed and incubated overnight.

HaCaT cells = assay: PI/Annexin V cell death in HaCaT skin keratinocytes; assay type: cell-based; details: HEMA 0.082M to 0.00164M alone or with NAC 20 mM, overnight
Protocol: Ten thousand events were analyzed for each sample. (FIG. 5)

RAW 264.7 cells = assay: Morphological changes in RAW 264.7 cells (inverted microscope); assay type: cell-based, murine; details: HEMA alone or with simultaneous NAC 20 mM, overnight
Text: Peripheral Blood Mononuclear Cells

odontoblasts = assay: ALP staining of rat odontoblasts; assay type: cell-based; details: 0.00328M HEMA; overnight, 7 days or 14 days
Protocol: Restoring the function of cells is also very important. Therefore, ALP staining was performed as a measure of odontoblast function. […] Following this incubation, cells were washed twice with PBS and incubated with 120 mM of Tris buffer (pH=8.4) containing 0.9 mM Napthol AS-M Phosphate and 1.8 mM Fast Red TR for 30 minutes at 37° C. Afterwards the cells were washed three times with PBS and then fixed with 1 ml cold ethanol (100%) for about 30 minutes. The stained cultures were digitized using a scanner.

[4] = test system: human dental pulp stromal cells; assay: VEGF by ELISA, human dental pulp stromal cells, NAC versus vitamin E (Table 5); assay type: cell-based; details: 4 hours
Protocol: Following the 4 hour incubation, cells were analyzed for apoptosis using FTIC-Annexin V and PI.
Dental pulp stromal cells were then treated as described in the preceding paragraph with supernatants removed and assayed for VEGF levels by ELISA following the 4 hour incubation.

osteoblasts = assay: Cell death of osteoblasts differentiated from mesenchymal stem cells; assay type: cell-based
Protocol: In a subsequent study, mesenchymal stem cells were differentiated to osteoblasts in differentiation media. […] Treated osteoblasts were then removed and cell death was determined using FITC-Annexin V and PI staining.

[5] = test system: UCLA-2 cells (a primary oral tumor line); assay: VEGF release from UCLA-2 cells (Table 4); assay type: cell-based
Protocol: The cells were then grown in media containing β-glycerophosphate and ascorbic acid until they reached confluency. […] Supernatants were measured for VEGF release.

gingival cells [6] = assay: Bleaching agent on rat palatal gingiva: gingival cell growth; assay type: in vivo, rats; details: bleaching agent on palatal gingiva 5 hours, without or with NAC; cells grown 21 days
Protocol: For gingival cells, the bleaching agent was applied in the same order of experimental groups to the palatal gingiva for 5 hours, washed and excised and minced and treated with collagenase (0.01%) for 48 hours before the single cell suspensions were prepared by washing and resuspending in DMEM. The cells were allowed to grow to confluency for 21 days before photographs were taken. […] FIG. 46 provides a graphical representation of cell survival.

[7] = test system: osteopontin (OPN) and osteocalcin (OCN); assay: RT-PCR for osteopontin and osteocalcin in rat dental pulp stromal cells; assay type: cell-based; details: media containing ascorbic acid and β-glycerophosphate
Text: Rat dental pulp stromal cells were again cultured under 3 different conditions: (1) DMEM alone (undifferentiated); (2) DMEM+β-glycerophosphate+ascorbic acid (differentiated−Dex); and (3) DMEM+β-glycerophosphate+ascorbic acid+dexamethasone (differentiated+Dex). The differentiation of the cells under these different culture conditions was then confirmed by an RT-PCR to assay for genes which are induced during differentiation (osteopontin and osteocalcin). Osteopontin (OPN), is an early osteoblastic marker and osteocalcin (OCN) a late stage marker.
RNA was extracted from the cells and PCR was again performed for OPN and OCN.

gingival cells [8] = assay: PI/FITC-Annexin V cell survival of rat gingival cells; assay type: cell-based; details: 0.0164M-0.00164M HEMA with NAC 20 mM, about 12-14 hours, versus HEMA alone
Protocol: Rat gingival cells were obtained from 8 week old male rats and cultured in DMEM supplemented with 10% FBS, 1% antibiotic-antimycotic, 1% sodium pyruvate and 1% non-essential amino acids. […] Cell survival was measured by PI/FITC-Annexin V staining as described previously.

[9] = test system: dental pulp stromal cells; assay: Cell death in rat dental pulp stromal cells in vitro; assay type: cell-based, Sprague-Dawley rats; details: 0.0328M and 0.00328M HEMA with NAC 20 mM, about 12-14 hours, versus HEMA alone
Text: In a first study using dental pulp stromal cells, dental pulp tissue was extracted from the lower central incisors of 8-12 week old male Sprague-Dawley rats. The lower central incisors were carefully extracted without fracture to avoid periodontal tissue influx into the pulp tissue. The periodontal tissue and other soft tissue remnants were removed from the root part of the teeth, and the incisor tip and root parts were then cut to allow the pulp tissue to be washed out. The extracted tissue was then treated with 0.1% collagenase in 0.25% trypsin EDTA at 37° C. for about 15 minutes. The pellet of released cells was then centrifuged at about 2000 rpm for about 4 minutes and resuspended in DMEM supplemented with 10% FBS, 1% sodium pyruvate, 1% non-essential amino acids and 1% antibiotic-antimycotic. The cells were cultured in a 6 well plate and the media was changed every 3 days.

Caspase 3 [10] = assay: Caspase 3 induction in Jurkat cells; assay type: cell-based; details: HEMA alone or with NAC 20 mM
[11] = test system: HEp2 cells co-cultured with PBMCs; assay: VEGF in co-cultures of HEMA/NAC treated HEp2 cells with PBMCs (multiplex cytokine array); assay type: cell-based, human; set-up: unit not given here
Caspase 3 [12] = assay: Full length caspase 3 in keratinocytes; assay type: cell-based; details: about 8 hours, NAC 20 mM
Text: Roles of NFkB and GAPDH in HEMA-Mediated Cell Death

[13] = test system: human mesenchymal stem cells; assay: VEGF secretion of human mesenchymal stem cells (ELISA); assay type: cell-based; details: HEMA alone or with NAC 20 mM, 4 hours, then overnight
dental pulp cells = assay: Rat incisor restoration with Herculite XR/ProBOND with or without NAC: pulp cell growth and ALP staining; assay type: in vivo, rats; details: restorative materials about 5 hours
Protocol: In a next experiment, the incisors of nine eight-week-old male rats were prepared with class V preparations near the level of the gingival using a #1 round bur in a high speed dental handpiece.
Again, in this experiment upper and lower incisors were used. Restorative materials were placed on the teeth for about 5 hours. The pulp was extracted and treated with trypsin/EDTA (0.25%) and collagenase (0.02%), washed and resuspended in DMEM containing β-glycerophosphate (10 mM) and ascorbic acid (50 μg/ml) and allowed to grow to confluency. After 14 days of cell growth (media changed every 2-3 days) photographs were taken using an inverted microscope; cells were detached and counted in each experimental group; and wells containing different experimental groups were stained for alkaline phosphatase (ALP).
In vivo studies were performed after tooth restorations to assess the protective effect of NAC on both the viability and function of rat pulp tissue. Eight week old male rats were used for restorations of the incisors. In this study the number of functional cells in cells extracted from the lining of the rat teeth where (A) no restorative materials were administered; (B) restorative materials only were applied; and (C) restorative material in conjunction with NAC were compared. Specifically, nine rats were used and were divided into 3 groups (A, B or C) of 3 rats each. […]

IL-2 treated PBMCs = assay: Tritiated thymidine proliferation of IL-2 treated PBMCs; assay type: cell-based; details: HEMA and NAC, 24 hours with tritiated thymidine
Protocol: Tritiated thymidine was added to the cells and after 24 hours of incubation assessed for proliferation.

PBMCs = PBMCs treated with HEMA or CDDP, FITC-Annexin V and PI; assay type: cell-based; details: about 18 hours, highest concentration of CDDP, HEMA 0.0164M-0.00164M
Text: The cells were then stained with FITC-Annexin V and PI according to the manufacturer's protocol.

[14] = test system: NFkB knock down oral keratinocytes; assay: Cell death in NFkB knock down oral keratinocytes (FS/PI); assay type: cell-based, human; details: overnight
Text: Next, retrovirally-transduced oral keratinocytes were left untreated or treated with HEMA. […] Numbers in each quadrant represent the percentages of cells in that quadrant.
Similar treatments were next performed as described above except that the morphological assessment of oral keratinocytes before and after HEMA treatment was examined.

CC(=O)N[C@@H](CS)C(=O)O [NAC, N-acetyl-cysteine]
VEGF secretion [1]: could be reversed | IL-6 ([2]; HEp2 −HEMA (+NAC), PBMC +IL-2): 1835 pg/mL | IL-6 ([2]; HEp2 −HEMA (+NAC), PBMC −IL-2): 880 pg/mL | VEGF secretion [3]: strongly if not totally ameliorated | cell death [3]: strongly if not totally ameliorated | apoptotic cell death (PI/Annexin V) (HaCaT cells): considerably decreased the percentages of cells positive for PI/Annexin V staining | morphological changes (decreased size, blebbing, apoptotic bodies) (RAW 264.7 cells): inhibited the occurrence of these morphological changes | ALP staining (odontoblast function) (odontoblasts): positive for ALP staining | VEGF levels by ELISA, Human dental pulp stromal cells ([4]; no HEMA, NAC (20 mM) and/or vitamin E (5 mM)): 1532.4 | prevention of HEMA-mediated cell death (osteoblasts; NAC 20 mM, 18 hours): can prevent HEMA-mediated cell death | UCLA-2 (VEFG secretion) ([5]; NAC alone, no HEMA): 2831.9 pg/mL | gingival cell death (gingival cells [6]): ameliorated | differentiation markers OPN and OCN [7]: express higher levels of OPN and OCN | viable cells after HEMA exposure (gingival cells [8]): higher number of viable cells | viable cells after HEMA exposure [9]: higher number of viable cells | Caspase 3 induction (Caspase 3 [10]): decreased the induction of caspase 3 expression | VEGF ([11]; HEp2 −HEMA (+NAC 20 mM), Patient PBMC −IL-2): 5648 | VEGF ([11]; HEp2 −HEMA (+NAC), Patient PBMC +IL-2): 5805 | levels of full length caspase 3 (processing of caspase 3) (Caspase 3 [12]): this decrease is inhibited | VEGF secretion [13]: prevented the HEMA-mediated decrease | pulp cell number after restoration (dental pulp cells; 14 days of cell growth): can help to prevent the cell loss | ALP staining of pulp cells after restoration (dental pulp cells; composite resin with or without NAC): can be ameliorated | proliferation (IL-2 treated PBMCs): can prevent HEMA-induced loss of proliferation

C=C(C)C(=O)OCCO [HEMA, hydroxyethyl methacrylate]
VEGF secretion [1]: significantly reduced VEGF secretion | IL-6 ([2]; HEp2 +0.00082M HEMA, −/+NAC, PBMC +IL-2): 371 pg/mL | IL-6 ([2]; HEp2 +0.00082M HEMA, −/+NAC, PBMC −IL-2): 204 pg/mL | IL-6 ([2]; HEp2 +0.00164M HEMA, −/+NAC, PBMC +IL-2): 264 pg/mL | IL-6 ([2]; HEp2 +0.00164M HEMA, −/+NAC, PBMC −IL-2): 208 pg/mL | IL-6 ([2]; HEp2 +0.0082M HEMA, −/+NAC, PBMC +IL-2): 243 pg/mL | IL-6 ([2]; HEp2 +0.0082M HEMA, −/+NAC, PBMC −IL-2): 192 pg/mL | IL-6 ([2]; HEp2 +0.0164M HEMA, −/+NAC, PBMC +IL-2): 262 pg/mL | IL-6 ([2]; HEp2 +0.0164M HEMA, −/+NAC, PBMC −IL-2): 191 pg/mL | VEGF secretion [3]: large effects | cell death [3]: large effects | apoptotic cell death (PI/Annexin V) (HaCaT cells): dose dependent induction of apoptotic cell death | morphological changes (decreased size, blebbing, apoptotic bodies) (RAW 264.7 cells): morphological changes indicative of apoptosis | ALP staining (odontoblast function) (odontoblasts): significantly less staining | cells remained both PI and Annexin V negative (PBMCs): less than 50% | VEGF levels by ELISA, Human dental pulp stromal cells ([4]; HEMA 0.00164M, alone or with NAC and/or vitamin E): 57.26 | VEGF levels by ELISA, Human dental pulp stromal cells ([4]; HEMA 0.0082M, alone or with NAC and/or vitamin E): 72.6 pg/mL | VEGF levels by ELISA, Human dental pulp stromal cells ([4]; HEMA 0.0164M, alone or with NAC (20 mM) and/or vitamin E (5 mM)): 73.79 | cells that underwent cell death (osteoblasts; osteoblasts, 0.0164M HEMA): 49.7% | UCLA-2 (VEFG secretion) ([5]; HEMA 0.00164M, alone or with NAC): 3258.8 pg/mL | UCLA-2 (VEFG secretion) ([5]; HEMA 0.0082M, alone or with NAC): 319.6 pg/mL | UCLA-2 (VEFG secretion) ([5]; HEMA 0.0164M, alone or with NAC): 180.2 pg/mL | Caspase 3 induction (Caspase 3 [10]): increase in Caspase 3 induction | VEGF ([11]; HEp2 +0.00164M HEMA, −/+NAC, Patient PBMC +IL-2): 7760 | VEGF ([11]; HEp2 +0.00164M HEMA, −/+NAC, Patient PBMC −IL-2): 6550 | VEGF ([11]; HEp2 +0.0164M HEMA, −/+NAC 20 mM, about 18 hours, Patient PBMC −IL-2): 1161 | VEGF ([11]; HEp2 +0.0164M HEMA, −/+NAC, Patient PBMC +IL-2): 379 | levels of full length caspase 3 (processing of caspase 3) (Caspase 3 [12]): decrease in the levels of full length caspase 3 | cell death (FS, PI staining) [14]: induces significant cell death | VEGF secretion [13]: significantly decreased secretion of VEGF
